Starred links: 1 amine or outer side, 2 acyl side, 3 side chain; linkers in the order of their positions; H or OH if unused. Positions of bridges follow the written chain, without caps; N, C: chain ends. Residues, ends and D or L forms follow the SMILES beside them. *: point of attachment. C20 diacid = O=C(O)CCCCCCCCCCCCCCCCCCC(=O)*; γGlu = O=C(O)[C@H](CCC(=O)[*:2])N[*:1]
Experiments:
[1] = Assay (III) ThT fibrillation assay for physical stability; assay type: physicochemical
In short: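 Freshly prepared formulations, pH-adjusted, with 1 μM ThT; four or eight replicates incubated at 37 °C under 960 rpm orbital shaking. Fluorescence (ex 444/em 485 nm) read every 20 min; […]. Peptide concentration measured by RP-HPLC before and after the run.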

food intake = experiment: Assay (I) efficacy testing on appetite (food intake), ad libitum fed rat model; assay type: in vivo, Sprague Dawley (SD) rats
Source text: In the following examples reference is made to the following Assays: • Assay (I)— Experimental protocol for efficacy testing on appetite using an ad libitum fed rat model • ASSAY (II)a—Functional assay—Human calcitonin and amylin receptor assay • ASSAY (II)b—Functional assay—Rat calcitonin and rat amylin receptor assays • ASSAY (III)—ThT fibrillation assays for the assessment of physical stability of protein formulations • ASSAY (IV)—Determination of solubility • ASSAY (V)—Determination of binding to the human amylin receptor • ASSAY (VI)—Determination of the binding to the rat amylin receptor • ASSAY (VII)—Determination of binding to the human calcitonin receptor • ASSAY (VIII)—Determination of binding to the rat calcitonin receptor • ASSAY (IX)—pK—Determination of T % in mini-pig • ASSAY (X)—pK—Determination of T % in rat ASSAY (I)—Experimental Protocol for Efficacy Testing on Appetite Using an Ad Libitum Fed Rat Model
Sprague Dawley (SD) rats from Taconic Europe, Denmark are used for the experiments. The rats have a body weight 200-250 g at the start of experiment. The rats arrive at least 10-14 days before start of experiment to allow acclimatization to experimental settings. During this period the animals are handled at least 2 times. After arrival rats are housed individually for one week in a reversed light/dark phase (meaning that lights are off during daytime and on during nighttime) […]. Since rats are normally active and eat their major part of their daily food intake during the dark period, rats are dosed in the morning right before lights are turned off. This set-up results in the lowest data variation and highest test sensitivity. The experiment is conducted in the rats' home cages and rats have free access to food and water throughout the acclimatization period and the experiment period. Each dose of derivative is tested in a group of 5-8 rats. A vehicle group of 6-8 rats is included in each set of testing. Rats are dosed once according to body weight with a 0.01-3 mg/kg solution administered intraperitoneally (ip), orally (po) or subcutaneously (sc). The time of dosing is recorded for each group. After dosing, the rats are returned to their home cages, where they then have access to food and water. The food consumption is recorded individually continuously by on-line registration or manually every hour for 7 hours, and then after 24 h and sometimes 48 h. At the end of the experimental session, the animals are euthanised.
The individual data are recorded in Microsoft excel sheets. Outliers are excluded after applying the Grubbs statistical evaluation test for outliers, and the result is presented graphically using the GraphPad Prism program.

ThT pH 4.0 lag time ([1]; Table 8) [h] | ThT pH 4.0 lag time ([1]; Table 9) [h] | ThT pH 4.0 lag time ([1]; ThT fibrillation assay) [h] | ThT pH 4.0 lag time (h) ([1]; ThT fibrillation assay) | SMILES | Food intake reduction 0-24 h 3 nmol/kg (%) (food intake; 0-24 h, 3 nmol/kg) | Food intake reduction 24-48 h 3 nmol/kg (%) (food intake; 24-48 h, 3 nmol/kg) | Food intake reduction 0-24 h 30 nmol/kg (%) (food intake; 0-24 h, 30 nmol/kg) | Food intake reduction 24-48 h 30 nmol/kg (%) (food intake; 24-48 h, 30 nmol/kg)
>45 | >45 | >45 | >45 | CC[C@H](C)[C@H](NC(=O)[C@@H]1CCCN1C(=O)CNC(=O)[C@H](Cc1ccccc1)NC(=O)[C@H](CO)NC(=O)[C@H](CO)NC(=O)[C@H](CO)NC(=O)[C@H](CO)NC(=O)[C@H](CCCNC(=N)N)NC(=O)[C@H](Cc1c[nH]cn1)NC(=O)[C@H](CC(C)C)NC(=O)[C@H](Cc1ccccc1)NC(=O)[C@H](CCC(=O)O)NC(=O)[C@H](C)NC(=O)[C@H](CC(C)C)NC(=O)[C@H](CCCNC(=N)N)NC(=O)[C@H](CCC(N)=O)NC(=O)[C@@H](NC(=O)[C@H](C)NC(=O)[C@@H]1CSSC[C@H](NC(=O)[C@H](Cc2c[nH]cn2)NC(=O)CC[C@H](NC(=O)CCCCCCCCCCCCCCCCCCC(=O)O)C(=O)O)C(=O)N[C@@H](CC(N)=O)C(=O)N[C@@H]([C@@H](C)O)C(=O)N[C@@H](C)C(=O)N[C@@H]([C@@H](C)O)C(=O)N1)[C@@H](C)O)C(=O)N[C@@H](CC(C)C)C(=O)N1CCC[C@H]1C(=O)N1CCC[C@H]1C(=O)N[C@H](C(=O)N[C@@H](CC(=O)O)C(=O)N[C@H](C(=O)NCC(=O)N[C@@H](CO)C(=O)N[C@@H](CC(=O)O)C(=O)N[C@H](C(=O)N[C@@H](Cc1ccc(O)cc1)C(N)=O)[C@@H](C)O)C(C)C)[C@@H](C)O [Example 9, N-alpha-[(S)-4-Carboxy-4-(19-carboxynonadecanoylamino)butyryl]-[His1,Glu14,His17,Arg18,Ser21,Ser22,Asp31,Asp35]-pramlintide] ({C20 diacid-γGlu}-HCNTATCATQRLAEFLHRSSSSFGPILPPTDVGSDTY-NH2; disulfide 2-7 (inferred); C-terminus assumed) | 39 | 32 | – | –
– | – | – | 7.4 | CC[C@H](C)[C@H](NC(=O)[C@@H]1CCCN1C(=O)CNC(=O)[C@H](Cc1ccccc1)NC(=O)[C@H](CC(N)=O)NC(=O)[C@H](CC(N)=O)NC(=O)[C@H](CO)NC(=O)[C@H](CO)NC(=O)[C@H](Cc1c[nH]cn1)NC(=O)[C@H](Cc1c[nH]cn1)NC(=O)[C@H](CC(C)C)NC(=O)[C@H](Cc1ccccc1)NC(=O)[C@H](CCC(=O)O)NC(=O)[C@H](C)NC(=O)[C@H](CC(C)C)NC(=O)[C@H](CCCNC(=N)N)NC(=O)[C@H](CCC(N)=O)NC(=O)[C@@H](NC(=O)[C@H](C)NC(=O)[C@@H]1CSSC[C@H](NC(=O)[C@H](Cc2c[nH]cn2)NC(=O)[C@H](Cc2c[nH]cn2)NC(=O)[C@H](Cc2c[nH]cn2)NC(=O)CC[C@H](NC(=O)CCCCCCCCCCCCCCCCCCC(=O)O)C(=O)O)C(=O)N[C@@H](CC(N)=O)C(=O)N[C@@H]([C@@H](C)O)C(=O)N[C@@H](C)C(=O)N[C@@H]([C@@H](C)O)C(=O)N1)[C@@H](C)O)C(=O)N[C@@H](CC(C)C)C(=O)N1CCC[C@H]1C(=O)N1CCC[C@H]1C(=O)N[C@H](C(=O)N[C@@H](CC(N)=O)C(=O)N[C@H](C(=O)NCC(=O)N[C@@H](CO)C(=O)N[C@@H](CC(N)=O)C(=O)N[C@H](C(=O)N[C@@H](Cc1ccc(O)cc1)C(N)=O)[C@@H](C)O)C(C)C)[C@@H](C)O [Example 11, N-alpha-[(S)-4-Carboxy-4-(19-carboxynonadecanoylamino)butyryl]-His-His-[His1,Glu14,His17]-pramlintide] ({C20 diacid-γGlu}-HHHCNTATCATQRLAEFLHHSSNNFGPILPPTNVGSNTY-NH2; disulfide 4-9 (inferred)) | – | – | 87 | 92

Reference: patent US8722849B2, “Polypeptides” (Novo Nordisk A/S, priority 2011, dated 2014)
